Values of other authors, collected in PMC5493349, “Quaternary structure is an essential component that contributes to the sophisticated allosteric regulation mechanism in a key enzyme from Mycobacterium tuberculosis” (PLoS ONE, 2017).

How the values were obtained:
Details in all cases: cited from earlier work
wild-type MtuDAH7PS [1] = biological target: T1, wild-type MtuDAH7PS (Mycobacterium tuberculosis, UniProt O53512)
wild-type MtuDAH7PS [2] = biological target: T1, wild-type MtuDAH7PS; remark: listed apart in the source
wild-type MtuDAH7PS [3] = biological target: T1, wild-type MtuDAH7PS; remark: listed apart in the source

T1 sequence (O53512 whole entry): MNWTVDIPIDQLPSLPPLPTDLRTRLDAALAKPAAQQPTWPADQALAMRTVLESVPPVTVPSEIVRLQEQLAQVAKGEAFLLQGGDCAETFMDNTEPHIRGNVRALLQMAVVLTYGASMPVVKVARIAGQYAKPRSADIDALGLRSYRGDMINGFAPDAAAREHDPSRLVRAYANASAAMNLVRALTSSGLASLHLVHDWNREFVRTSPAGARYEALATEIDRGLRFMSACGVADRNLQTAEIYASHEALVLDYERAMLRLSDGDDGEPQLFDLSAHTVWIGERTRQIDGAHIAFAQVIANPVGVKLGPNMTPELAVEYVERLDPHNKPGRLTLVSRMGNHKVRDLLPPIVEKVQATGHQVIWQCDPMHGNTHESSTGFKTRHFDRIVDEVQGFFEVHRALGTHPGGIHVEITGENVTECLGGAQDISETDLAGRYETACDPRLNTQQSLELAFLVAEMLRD

SMILES | E4P0.5 (wild-type MtuDAH7PS [1]) [µM] | reduction in Kd of Trp after pre-incubation with Phe (wild-type MtuDAH7PS [2]) [fold] | inhibition of wild type MtuDAH7PS by Trp alone (wild-type MtuDAH7PS [3])
O=C[C@H](O)[C@H](O)COP(=O)(O)O [E4P, erythrose 4-phosphate] | 382 |  | 
N[C@@H](Cc1c[nH]c2ccccc12)C(=O)O [Trp, L-Trp] |  | 4 | not inhibitory
